{
  "source": "ChEMBL document CHEMBL1201862",
  "about": "“PubChem BioAssay data set” (2004)",
  "key": {"NS3": {"target": "NS3 (Hepatitis C virus, UniProt A3EZJ3)", "sequence (A3EZJ3 whole entry)": "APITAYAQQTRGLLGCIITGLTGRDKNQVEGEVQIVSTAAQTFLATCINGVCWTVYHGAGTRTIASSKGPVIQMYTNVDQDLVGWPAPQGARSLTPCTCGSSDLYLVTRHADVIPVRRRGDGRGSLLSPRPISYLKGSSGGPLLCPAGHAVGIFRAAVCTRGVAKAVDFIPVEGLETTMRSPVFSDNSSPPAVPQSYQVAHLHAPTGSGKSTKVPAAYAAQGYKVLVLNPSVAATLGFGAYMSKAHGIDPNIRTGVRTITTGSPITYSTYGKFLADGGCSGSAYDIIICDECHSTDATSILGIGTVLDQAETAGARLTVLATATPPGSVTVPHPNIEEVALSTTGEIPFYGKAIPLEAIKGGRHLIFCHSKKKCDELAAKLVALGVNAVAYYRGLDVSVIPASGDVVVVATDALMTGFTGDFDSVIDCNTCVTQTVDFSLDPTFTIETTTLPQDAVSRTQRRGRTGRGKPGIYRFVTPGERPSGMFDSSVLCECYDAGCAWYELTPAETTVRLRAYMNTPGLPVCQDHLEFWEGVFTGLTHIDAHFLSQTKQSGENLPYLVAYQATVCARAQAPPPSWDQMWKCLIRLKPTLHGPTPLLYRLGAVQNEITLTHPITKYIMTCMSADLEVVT", "assay": "PubChem AID 2173", "set-up": "species or system Hepacivirus hominis"}, "[1]": {"target": "T1, Carboxy-terminal domain RNA polymerase II polypeptide A small phosphatase 1 (Homo sapiens, UniProt Q9GZU7)", "T1 sequence (Q9GZU7 whole entry)": "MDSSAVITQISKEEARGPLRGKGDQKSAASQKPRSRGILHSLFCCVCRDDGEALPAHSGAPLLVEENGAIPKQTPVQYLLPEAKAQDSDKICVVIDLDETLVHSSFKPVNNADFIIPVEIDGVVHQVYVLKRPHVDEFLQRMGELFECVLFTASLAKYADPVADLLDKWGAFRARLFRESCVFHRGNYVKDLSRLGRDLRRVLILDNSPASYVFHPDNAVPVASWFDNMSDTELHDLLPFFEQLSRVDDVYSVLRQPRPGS", "assay": "inhibitors of CTDSP1, concentration-response testing, biochemical assay, absorbance-based, actives from ultra-high-throughput screening (AID 540297)", "type": "functional"}, "HeLa": {"tested_on": "HeLa", "assay": "Cytotoxicity counterscreen assay for transcriptional activators of heat shock protein 70 (Hsp70). [Related pubchem assays: 1203, 1252 ]", "type": "functional", "conditions": "Homo sapiens"}, "[2]": {"target": "T2, Sentrin-specific protease 1 (Homo sapiens, UniProt Q9P0U3)", "T2 sequence (Q9P0U3 whole entry)": "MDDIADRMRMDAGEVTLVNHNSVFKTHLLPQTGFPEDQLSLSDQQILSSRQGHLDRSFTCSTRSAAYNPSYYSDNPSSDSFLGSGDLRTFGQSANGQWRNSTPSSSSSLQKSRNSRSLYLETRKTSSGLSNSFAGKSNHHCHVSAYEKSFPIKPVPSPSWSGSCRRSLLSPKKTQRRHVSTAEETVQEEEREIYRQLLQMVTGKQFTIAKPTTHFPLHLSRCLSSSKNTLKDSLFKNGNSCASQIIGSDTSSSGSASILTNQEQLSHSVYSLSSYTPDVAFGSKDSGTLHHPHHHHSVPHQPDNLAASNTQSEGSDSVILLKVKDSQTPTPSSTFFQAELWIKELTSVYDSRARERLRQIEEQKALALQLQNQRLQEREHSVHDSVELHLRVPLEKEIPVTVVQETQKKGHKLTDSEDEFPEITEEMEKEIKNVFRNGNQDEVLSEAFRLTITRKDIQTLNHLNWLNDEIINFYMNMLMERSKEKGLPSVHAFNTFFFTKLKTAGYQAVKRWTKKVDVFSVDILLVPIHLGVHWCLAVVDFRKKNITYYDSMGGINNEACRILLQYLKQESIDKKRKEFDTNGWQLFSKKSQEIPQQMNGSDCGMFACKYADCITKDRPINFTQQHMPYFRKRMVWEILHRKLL", "assay": "Dose response confirmation of small molecule inhibitors of the catalytic domain of the SUMO protease, SENP1 in a FRET assay.", "type": "functional", "conditions": "read-out: IC50_Mean"}, "[3]": {"target": "T2, Sentrin-specific protease 1", "assay": "potency of human SENP1 inhibitors, dose response, biochemical, kinetic FRET (AID 651697)", "type": "functional", "conditions": "read-out: IC50_Mean"}, "Insulin-degrading enzyme": {"target": "T3, Insulin-degrading enzyme (Homo sapiens, UniProt P14735)", "T3 sequence (P14735 whole entry)": "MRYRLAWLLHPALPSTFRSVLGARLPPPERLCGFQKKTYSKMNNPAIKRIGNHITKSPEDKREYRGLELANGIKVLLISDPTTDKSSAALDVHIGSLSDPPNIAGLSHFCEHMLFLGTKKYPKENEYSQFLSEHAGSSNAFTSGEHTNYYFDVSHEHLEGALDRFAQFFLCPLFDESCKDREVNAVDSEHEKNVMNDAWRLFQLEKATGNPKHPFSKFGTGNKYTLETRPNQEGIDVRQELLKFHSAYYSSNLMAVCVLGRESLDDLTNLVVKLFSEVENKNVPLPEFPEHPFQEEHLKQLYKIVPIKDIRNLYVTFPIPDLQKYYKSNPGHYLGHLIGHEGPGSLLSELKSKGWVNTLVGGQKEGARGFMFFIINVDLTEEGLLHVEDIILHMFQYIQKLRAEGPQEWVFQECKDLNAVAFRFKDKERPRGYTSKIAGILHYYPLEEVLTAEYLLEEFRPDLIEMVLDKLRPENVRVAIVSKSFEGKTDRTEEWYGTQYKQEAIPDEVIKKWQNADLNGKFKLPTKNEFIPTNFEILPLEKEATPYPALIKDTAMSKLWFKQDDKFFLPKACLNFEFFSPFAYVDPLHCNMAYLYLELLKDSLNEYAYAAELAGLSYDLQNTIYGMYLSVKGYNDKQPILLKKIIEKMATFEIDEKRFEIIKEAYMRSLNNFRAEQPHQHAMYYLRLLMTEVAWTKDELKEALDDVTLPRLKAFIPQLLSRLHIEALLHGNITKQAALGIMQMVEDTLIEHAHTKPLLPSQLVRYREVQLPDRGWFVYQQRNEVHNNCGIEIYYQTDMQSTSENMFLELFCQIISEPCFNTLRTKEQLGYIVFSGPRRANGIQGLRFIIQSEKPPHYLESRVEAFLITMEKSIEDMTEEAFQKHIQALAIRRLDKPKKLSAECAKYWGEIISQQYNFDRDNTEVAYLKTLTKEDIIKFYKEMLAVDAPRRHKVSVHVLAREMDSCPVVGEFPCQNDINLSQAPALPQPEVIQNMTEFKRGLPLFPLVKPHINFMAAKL", "assay": "Dose Response: Fluorescence polarization-based cell-based high throughput dose response assay for inhibitors of insulin-degrading enzyme (IDE). [Related pubchem assays: 434962 (Primary screen (IDE inhibitors in singlicate)), 449730 (Counterscreen (Cytotoxicity in triplicate)), 435028 (Confirmation (IDE inhibitors in triplicate)), 434984 (Summary …", "type": "functional"}, "[4]": {"assay": "Counterscreen for IDE inhibitors: Luminescence-based cell-based high throughput dose response assay to identify compounds that are cytotoxic to HEK cells. [Related pubchem assays: 434962 (Primary screen (IDE inhibitors in singlicate)), 449730 (Counterscreen (Cytotoxicity in triplicate)), 435028 (Confirmation (IDE inhibitors in triplicate)) …", "type": "functional", "conditions": "HEK293"}},
  "note": "The source made the active and inactive calls.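 Throughout, for CC50: cells exposed to compound for 16 hours before readout.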",
  "data": [
    {"molecule": "Cc1ccc(C(=O)O)cc1-c1ccc(/C=C2\\SC(=O)N(CC(=O)Nc3ccccc3)C2=O)o1", "values": [
      {"measurement": "IC50", "setting": "NS3", "value": "5.39 µM (active)"},
      {"measurement": "IC50", "setting": "[1]", "value": "2.75 µM (active)"}
    ]},
    {"molecule": "Cc1ccc(N=C(S)NC(NC(=O)c2ccccc2)C(Cl)(Cl)Cl)c(C)c1", "note": "(stereo not drawn)", "values": [
      {"measurement": "CC50", "setting": "HeLa", "value": "47 µM (not active)"}
    ]},
    {"molecule": "O=C(CCCn1c(=O)c2sccc2n(Cc2cc(=O)n3ccccc3n2)c1=O)NCc1ccco1", "values": [
      {"measurement": "IC50", "setting": "cells", "value": "36.6 µM (active)"}
    ]},
    {"molecule": "Cc1c(-n2cc(C(=O)c3cc(Cl)ccc3O)cc(C#N)c2=O)c(=O)n(-c2ccccc2)n1C", "values": [
      {"measurement": "IC50", "setting": "[2]", "value": "7.48 µM (active)"},
      {"measurement": "IC50", "setting": "[3]", "value": "13 µM (active)"},
      {"measurement": "IC50", "setting": "Insulin-degrading enzyme", "value": "> 55.9 µM (not active)"},
      {"measurement": "IC50", "setting": "[4]", "value": "> 55.7 µM (not active)"}
    ]}
  ]
}
